# Measured values as given in ChEMBL document CHEMBL1122922, “Inhibition of muscarinic receptor binding and acetylcholine-induced contraction of guinea pig ileum by analogues of 5'-(isobutylthio)adenosine” (J Med Chem, 1985).
# Molecular target: Muscarinic acetylcholine receptor
# Test: Ability to inhibit binding of [3H]QNB to Muscarinic acetylcholine receptor in cultured N4TG1 neuroblastoma cells at 1e-8 to 1e-3 M
row,SMILES,I 50 [µM]
1,CC(C)CSCC1CC(n2cnc3c(N)nccc32)C(O)C1O (centres undefined),210
2,CC(C)CSC[C@H]1OC(n2cnc3c(N)ccnc32)[C@H](O)[C@@H]1O (some centres undefined),52
3,CC(C)CSC[C@H]1OC(n2cnc3c(N)nccc32)[C@H](O)[C@@H]1O (some centres undefined),39
4,CC(C)CSC[C@H]1OC(n2cnc3c(N)ncnc32)[C@H](O)[C@@H]1O (some centres undefined),1500
